In paper PMC10447463, “Data-mining unveils structure–property–activity correlation of viral infectivity enhancing self-assembling peptides” (Nature Communications, 2023):

Legend:
[1] = test system: HIV-1 infection of TZM-bl cells; assay: HIV-1 infectivity enhancement assay, β-galactosidase luminescence; format: cell-based; settings: for Log10 Infection Rel EF-C: log10 of infection relative to EF-C
[2] = format: physicochemical; parameters: key to Fibril / Fibril Formation / TEM 2cat / Fibril: 1 = fibrils present; 0 non-fibrillar structures; settings: for Fibril / Fibril Formation: TEM, 1 mg/mL, uranyl acetate stain, qualitative
[3] = Turbidity, derived count rate of scattered light; format: physicochemical; settings: for Count Rate / kcps: derived count rate of scattered light at 633 nm, 173°, from zeta-potential measurement, 0.1 mg/mL in 1 mM KCl after 1 d at 1 mg/mL in PBS, turbidity / microscopic aggregation, mean of triplicate
How it was run: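 Samples: 1 mg/mL in PBS pH 7.4 (from DMSO), 1 d at RT, then diluted in 1 mM KCl immediately before measurement. Triplicates, two independent runs averaged.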

[4] = n-fold infection vs virus only, relative to that of EF-C, 1.3 µM peptide
[5] = HIV-1 infection relative to EF-C, Fig 23 plot, panels A and B, mean of 3 values
[6] = HIV-1 infection relative to EF-C, Fig 23 plot, single data point, replicate 1
[7] = HIV-1 infection relative to EF-C, Fig 23 plot, single data point, replicate 2
[8] = HIV-1 infection relative to EF-C, Fig 23 plot, single data point, replicate 3
[9] = log10 of derived count rate of scattered light, Figure 6C
[10] = logarithm of count rate in kcps

Substance	Log10 Infection Rel EF-C ([1]; Figure 7B)	Inf. rel. EF-C [1, 4]	Fibril / Fibril Formation [2]	Count Rate / kcps [3] [kcps]	Inf. rel. EF-C [1, 5]	Inf. rel. EF-C [1, 6]	Inf. rel. EF-C [1, 7]	Inf. rel. EF-C [1, 8]	Log10 Infection Rel EF-C ([1]; Figure 6C)	Log10 Count Rate [3, 9]	Log10 Count Rate [3, 10]	further results
RLRLTLC [CN13]												Absolute Infectivity / RLU /s (Feb2021) ([1]; Feb2021, figures match the 1.3 µM column): 1334 RLU /s; n-fold to virus (Feb2021) ([1]; Feb2021, infectivity relative to virus only): 2.165; Log10 of Rel to EFC (Feb2021) ([1]; Feb2021, log10 of infectivity relative to EF-C): -1.288; Rel-to EFC (Feb-2021) ([1]; Feb2021, n-fold infectivity relative to EF-C): 0.05153; infectivity ([1]; infectivity class (low / medium / high) of each library peptide, main list in c1-c6, same classes repeated in sub-lists of sequences containing the hydrophobicity/charge patterns P+,H0,P+,H0,P0,H0,P0, P+,H0,P0,H0,P0,H0,P0, P+,H0,P0,H0): low; Log10 Inf. rel. to EF-C ([1]; log10 of HIV-1 infection of TZM-bl cells relative to EF-C, Fig S15 source data, asymmetric std dev errors): -1.288; TEM: 1= fibrils, 0= aggregates (micelle), 0.5 = aggregates and fibrils, -1 = nothing obersved, STD prep ([2]; STD prep): 1; Zeta Count Rate Category ([3]; category 1 / 0, no key given): 1; Zeta Count Rate / kcps ([3]; derived count rate of scattered light): 125.6 kcps
RQGNINIVA [reference compound]	-0.93	0.12	1	36								infectivity enhancement, in words ([1]; fibril-forming peptides with positive zeta-potential, low count rate): do not enhance infectivity
RVHLGLG		0.02	1	28.33	0.0206	0.01527	0.01985	0.02667	-1.686	1.4523	1.4523	
RVRVTVT		0.06	0	25.33	0.05962	0.04632	0.07129	0.06124	-1.225	1.404	1.404	
VHDCVNITIK [reference compound]	-0.27	0.53	1	12542								Abs Infection at 0.26µM ([1]; peptide 0.26 µM, mean of n = 3, Figure 7A): 46666.66667; Abs Infection at 1.3 µM ([1]; peptide 1.3 µM, mean of n = 3, Figure 7A): 86910; Abs Infection at 6.5 µM ([1]; peptide 6.5 µM, mean of n = 3, Figure 7A): 136243.3333
